From patent publication US9102697B2, “Trioxacarcins and uses thereof” (President and Fellows of Harvard College, priority 2010, dated 2015)
“Also recorded” adds a separate entry of the source.

Assays:
[1] = system: self-complementary duplex 12-mer d(AATTACGTAATT) (SEQ ID NO: 1); assay: DNA alkylation detected by LC/MS; format: biochemical; details: for products from alkylated oligonucleotide after piperidine treatment: 1.0 M piperidine, 30 minutes at 95 °C; for covalent DNA-small molecule complex formed (LC/MS chromatogram): oligonucleotide 100 μM, 1 equiv compound, pH 7 buffer
Source text: Next, we performed a set of experiments to determine whether the DC-45-A2 and dideoxy-DC-45-A2 complexes observed by DNA-gel electrophoresis were covalent or not. A liquid chromatography-mass spectrometry (LC/MS) method was developed for the detection of DNA oligonucleotides and covalent DNA-small molecule complexes. The mass spectrometer was used in a negative ion mode under conditions that had been optimized for the detection of single-stranded nucleic acids.
To solutions of the oligonucleotide d(AATTACGTAATT) (SEQ ID NO: 1) (100 μM) in pH 7 buffer were added, in three separate reaction vials, 1 equiv of DC-45-A2, 1 equiv of iso-DC-45-A2, or 1 equiv of dideoxy-DC-45-A2. After incubation for 24 h at 23° C., it was evident from the LC/MS chromatogram that a covalent DNA-small molecule complex had formed in both the DC-45-A2 and dideoxy-DC-45-A2 reaction mixtures but not in the iso-DC-45-A2 reaction mixture (FIG. 13). The alkylated single-stranded oligonucleotide eluted as a signal that was separate from the non-alkylated oligonucleotide. […] The absence of an iso-DC-45-A2 complex is consistent with the absence of reactivity of this compound towards the oligonucleotide under the alkylation conditions in the DNA-gel experiment described in the section above. The IC50 values of the three compounds in antiproliferative assays are also depicted in FIG. 13.
To test whether or not alkylation by DC-45-A2 and dideoxy-DC-45-A2 occurs at the N7 guanine site via the same epoxide opening mechanism observed for trioxacarcin A, we treated samples of alkylated oligonucleotide with piperidine to provide a product solution with a final concentration of 1.0 M in piperidine. […] This fragmentation is consistent with induced single strand cleavage of the type observed in the Maxam-Gilbert G-specific reaction that is associated with N7 guanine alkylation. In the present case, the guanine residue has been excised and the phosphates at the 3′ and 5′ positions have been eliminated to give the two fragment strands.
General Method: To a solution of dsDNA [ds(AATTACGTAATT) (SEQ ID NO: 1), 1.07 mM] in alkylation buffer (86.7 μL, see above for preparation of solutions) in a 1.7-mL centrifuge tube was added a solution of DC-45-A2 in DMSO (2.00 μL, 5 mM). The sample was votexed, then rotated end-over-end at 23° C. for 2 h. The sample was stored at 4° C. for 16 h. The sample was diluted to a concentration of 5 μM of dsDNA. A 10 μL sample of the diluted solution was injected into a short oligonucleotide column (gradient elution with […] TEAB buffer and methanol, flow rate 150 μL/min) and the column output was monitored by mass spectrometry in a negative ionization mode. The doubly deionized DC-45-A2-alkylated single-stranded DNA oligonucleotide (mass/charge=2079.4) was detected at 9.32 min.
To five separate solutions (designated as vials 1-5) of duplex DNA oligonucleotide d(AATTACGTAATT) (SEQ ID NO: 1) (0.72 mM [concentration of the DNA duplex] in alkylation buffer [see paragraph above for preparation], 13.9 μL, 10 nmol, 1 equiv) in alkylation buffer (84.1 μL) were added, respectively, DC-45-A2 (5.0 mM solution in dimethylsulfoxide, 2.0 μL, 10 nmol, 1.0 equiv, vials 1 and 2), iso-DC-45-A2 (5.0 mM solution in dimethylsulfoxide, 2.0 μL, 10 nmol, 1.0 equiv, vial 3), and dideoxy-DC-45-A2 (5.0 mM solution in dimethylsulfoxide, 2.0 μL, 10 nmol, 1.0 equiv, vials 4 and 5). The samples were vortexed, then rotated end-over-end at 23° C. After 23 h 30 min, vials 2 and 5 were diluted with piperidine (10 μL) and placed in a heating block at 95° C. After 30 min, vials 2 and 5 were cooled by centrifugation for 30 seconds (VWR Labnet C-1200 Minicentrifuge). After a total reaction time of 24 h, a 5-μL aliquot was removed from each of the five reaction mixtures. Each aliquot was diluted with alkylation buffer (95 μL, see above for preparation). […]

[2] = Water solubility; details: attenuated by saturation with sodium chloride
[3] = system: self-complementary duplex 12-mer d(AATTACGTAATT) (SEQ ID NO: 1); assay: DNA alkylation detected by non-denaturing DNA-gel electrophoresis with in-gel fluorescence; format: biochemical; details: oligonucleotide 100 μM; at the lowest concentration of DC-45-A2 (printed 1 mM); 3 h at 23 °C
[4] = Storage and solution stability
[5] = system: HeLa S3 cells; assay: Cell proliferation assay (MTS/PMS), HeLa S3 cells; format: cell-based; details: HeLa cell line; 72 h at 37 °C
Method: (§1) Cell Culture. H460 cells and HeLa S3 cells were purchased from American Type Culture Collection (ATCC). H460 cells were maintained in RPMI-1640 medium supplemented with 10% fetal bovine serum (FBS). HeLa S3 cells were maintained in Dulbecco's Modified Eagle's Medium supplemented with 10% fetal bovine serum (FBS).
(§2) Cell Proliferation Assay. A solution of H460 or HeLa S3 cells (3000 cells/well) in growth medium was seeded onto a 96-well plate. The 96-well plate was incubated for 24 h at 37° C. Stock solutions of each compound were serially diluted and administrated to cells to achieve final concentrations of 38 nM to 83 μM (DC-45-A2 and iso-DC-45-A2) or 3.4 nM to 7.5 μM (dideoxy-DC-45-A2). After incubating at 37° C. for 72 h, 20 μL of MTS/PMS solution (Promega CellTiter 96® Aqueous Non-Radioactive Cell Proliferation Assay) was added to each well. After incubating at 37° C. for 3.5 h, the absorbance at 490 nm was recorded using a microplate reader (SpectraMax PLUS384) as a measure of viable cells. Percent growth inhibition was calculated for each well based upon the following formula: percent growth inhibition=100×(C−T)/C, where T is the absorbance of the well containing the test compound minus the average absorbance of wells containing media alone, and C is the average absorbance of wells containing vehicle control-treated cells minus the average absorbance of wells containing media alone. […]

[6] = system: H460 cells; assay: Cell proliferation assay (MTS/PMS), H460 cells; format: cell-based; details: H460 cell line (printed H4609 in b565); 72 h at 37 °C
Method: as §1, §2

| Compound | products from alkylated oligonucleotide after piperidine treatment [1] | relative abundance of the covalent complex ([1]; 24 h at 23 °C, compared with DC-45-A2 complex) | covalent DNA-small molecule complex formed (LC/MS chromatogram) ([1]; 24 h at 23 °C) | water solubility [2] | fluorescent DC-45-A2-DNA complex, in-gel fluorescence prior to ethidium bromide staining [3] | stability in solution ([4]; in solution at 23 °C) | stability on storage ([4]; stored neat at −25 °C with exclusion of light) | IC50, growth inhibition [5] | IC50, growth inhibition [6] |
| --- | --- | --- | --- | --- | --- | --- | --- | --- | --- |
| Dideoxy-DC-45-A2 | pTAATT and AATTACp | greater relative abundance | had formed |  |  |  |  |  |  |
| DC-45-A2 | pTAATT and AATTACp |  | had formed | appreciable water solubility | clearly observed | slow decomposition over hours | stable | micromolar; also recorded: submicromolar | micromolar; also recorded: submicromolar |
| COc1c2c(c(O)c3c4c(c(C)cc13)[C@H]1O[C@]3(C(OC)OC)O[C@H]1[C@](O)(O4)[C@@]31CO1)C(=O)[C@@H](O)C[C@@H]2O [iso-DC-45-A2, 11,12,13,15-tetraepi-DC-45-A2] |  |  | not |  |  |  |  | inactive | inactive |
